Structures can show the parent of a compound that is named as a salt.
Tests used:
H.influenzae = assay: Qualitative examination: enrichment of the inoculated test preparation in broth; type: cell-based
Method in brief: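 Growth/no growth after broth enrichment read out; negative enrichment taken as elimination of inoculum. Inoculum ca. 10^5 CFU/ml in 5 ml test substance, contact 2–72 h, then centrifugation wash in NaCl-peptone buffer, 2 ml into 20 ml Caso broth or Fildes medium, ≤4 d, 33±2°C.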

Alle Testkeime = assay: Overall assessment: time until all test germs are eliminated (count and enrichment); type: cell-based; conditions: time after inoculation; all six test germs
Procedure: Escherichia (E.coli) Staphylococcus (S.aureus) Streptococcus (Sc.) Pneumoniae Pseudomonas (P.aeruginosa) Staphylococcus (S. epidermidis) Haemophilus (H. influenzae)
Die verschiedenen Testsubstanzen a. bis j. wurden jeweils zu 5 ml in sterile Zentrifugenröhrchen abgefüllt und mit ca. 10^5 KBE^*/ml (* = koloniebildende Einheiten) der oben genannten Testkeime kontaminiert. Pro Substanz wurde für jeden Testkeim und jede zu prüfende Testzeit ein separater Ansatz angeimpft, d.h.10 Testsubstanzen zu jeweils 7 Testzeiten und 6 Testkeime (= insgesamt 502 Testansätze). Nach 2, 6, 8, 24, 32, 48 und 72 Stunden wurde dann der jeweilige Testansatz 10 Minuten bei 3000 rpm abzentrifugiert. Der Überstand wurde dekantiert und das Pellet in 5 ml NaCl Peptonpuffer aufgenommen und resuspendiert. Die Suspension wurde erneut 10 Minuten bei 3000 rpm abzentrifugiert und 5 ml NaCl-Peptonpuffer aufgenommen und mittels Vortex homogenisiert.
Die anschließende Keimzahlbestimmung erfolgte im Oberflächenverfahren durch Ausspiralisieren eines 10011 Aliquots auf Caso-Agar bzw. für H. influenzae auf Kochblut-Agar. Die Platten wurden bei 33±2°C für max. 4 Tage bebrütet. Die Nachweisgrenze des Verfahrens liegt bei 100 KBE/ml.
Jeweils 2 ml der Testansätze wurden in 20 ml Caso-Bouillon oder für H. influenzae, in Fildes-Medium der Firma Becton Dickinson, ARt. […]

Compound: Benzalkoniumchlorid [Benzalkoniumchlorid 0,0025 Gew.-%]
- Ergebnis der Reisolierung qualitiativ (+/-) nach Anreicherung (H.influenzae; 2 h after inoculation): -
- Ergebnis der Reisolierung qualitiativ (+/-) nach Anreicherung (H.influenzae; 4 h after inoculation): -
- Ergebnis der Reisolierung qualitiativ (+/-) nach Anreicherung (H.influenzae; 6 h after inoculation): -
- Ergebnis der Reisolierung qualitiativ (+/-) nach Anreicherung (H.influenzae; 8 h after inoculation): -
- Ergebnis der Reisolierung qualitiativ (+/-) nach Anreicherung (H.influenzae; 24 h after inoculation): -
- Ergebnis der Reisolierung qualitiativ (+/-) nach Anreicherung (H.influenzae; 32 h after inoculation): -
- Ergebnis der Reisolierung qualitiativ (+/-) nach Anreicherung (H.influenzae; 48 h after inoculation): -
- Ergebnis der Reisolierung qualitiativ (+/-) nach Anreicherung (H.influenzae; 72 h after inoculation): -

Compound: Benzalkoniumchlorid [Benzalkoniumchlorid 0,001 Gew.-%]
- Ergebnis der Reisolierung qualitiativ (+/-) nach Anreicherung (H.influenzae; 2 h after inoculation): -
- Ergebnis der Reisolierung qualitiativ (+/-) nach Anreicherung (H.influenzae; 4 h after inoculation): -
- Ergebnis der Reisolierung qualitiativ (+/-) nach Anreicherung (H.influenzae; 6 h after inoculation): -
- Ergebnis der Reisolierung qualitiativ (+/-) nach Anreicherung (H.influenzae; 8 h after inoculation): -
- Ergebnis der Reisolierung qualitiativ (+/-) nach Anreicherung (H.influenzae; 24 h after inoculation): -
- Ergebnis der Reisolierung qualitiativ (+/-) nach Anreicherung (H.influenzae; 32 h after inoculation): -
- Ergebnis der Reisolierung qualitiativ (+/-) nach Anreicherung (H.influenzae; 48 h after inoculation): -
- Ergebnis der Reisolierung qualitiativ (+/-) nach Anreicherung (H.influenzae; 72 h after inoculation): -

Compound: Benzalkoniumchlorid [Benzalkoniumchlorid 0,006 Gew.-%]
- Ergebnis der Reisolierung qualitiativ (+/-) nach Anreicherung (H.influenzae; 2 h after inoculation): -
- Ergebnis der Reisolierung qualitiativ (+/-) nach Anreicherung (H.influenzae; 4 h after inoculation): -
- Ergebnis der Reisolierung qualitiativ (+/-) nach Anreicherung (H.influenzae; 6 h after inoculation): -
- Ergebnis der Reisolierung qualitiativ (+/-) nach Anreicherung (H.influenzae; 8 h after inoculation): -
- Ergebnis der Reisolierung qualitiativ (+/-) nach Anreicherung (H.influenzae; 24 h after inoculation): -
- Ergebnis der Reisolierung qualitiativ (+/-) nach Anreicherung (H.influenzae; 32 h after inoculation): -
- Ergebnis der Reisolierung qualitiativ (+/-) nach Anreicherung (H.influenzae; 48 h after inoculation): -
- Ergebnis der Reisolierung qualitiativ (+/-) nach Anreicherung (H.influenzae; 72 h after inoculation): -

Compound: O=C(O)c1cn(C2CC2)c2cc(N3CCNCC3)c(F)cc2c1=O [Ciprofloxacin HCl 0,35 Gew.-%, Ciprofloxacin HCl, reference compound]
- Ergebnis der Reisolierung qualitiativ (+/-) nach Anreicherung (H.influenzae; 2 h after inoculation): -
- Ergebnis der Reisolierung qualitiativ (+/-) nach Anreicherung (H.influenzae; 4 h after inoculation): -
- Ergebnis der Reisolierung qualitiativ (+/-) nach Anreicherung (H.influenzae; 6 h after inoculation): -
- Ergebnis der Reisolierung qualitiativ (+/-) nach Anreicherung (H.influenzae; 8 h after inoculation): -
- Ergebnis der Reisolierung qualitiativ (+/-) nach Anreicherung (H.influenzae; 24 h after inoculation): -
- Ergebnis der Reisolierung qualitiativ (+/-) nach Anreicherung (H.influenzae; 32 h after inoculation): -
- Ergebnis der Reisolierung qualitiativ (+/-) nach Anreicherung (H.influenzae; 48 h after inoculation): -
- Ergebnis der Reisolierung qualitiativ (+/-) nach Anreicherung (H.influenzae; 72 h after inoculation): -

Compound: CC1COc2c(N3CCN(C)CC3)c(F)cc3c(=O)c(C(=O)O)cn1c23 (stereo not shown) [Ofloxacin 0,3 Gew.-%, Ofloxacin, reference compound]
- Ergebnis der Reisolierung qualitiativ (+/-) nach Anreicherung (H.influenzae; 2 h after inoculation): -
- Ergebnis der Reisolierung qualitiativ (+/-) nach Anreicherung (H.influenzae; 4 h after inoculation): -
- Ergebnis der Reisolierung qualitiativ (+/-) nach Anreicherung (H.influenzae; 6 h after inoculation): -
- Ergebnis der Reisolierung qualitiativ (+/-) nach Anreicherung (H.influenzae; 8 h after inoculation): -
- Ergebnis der Reisolierung qualitiativ (+/-) nach Anreicherung (H.influenzae; 24 h after inoculation): -
- Ergebnis der Reisolierung qualitiativ (+/-) nach Anreicherung (H.influenzae; 32 h after inoculation): -
- Ergebnis der Reisolierung qualitiativ (+/-) nach Anreicherung (H.influenzae; 48 h after inoculation): -
- Ergebnis der Reisolierung qualitiativ (+/-) nach Anreicherung (H.influenzae; 72 h after inoculation): -
- Testkeime nach Inokulation der Zubereitung auch qualitativ nicht mehr nachweisbar (Alle Testkeime): 24 Stunden

Compound: CCCCCCCCCCCC[N+](C)(C)Cc1ccccc1 [Benzalkoniumchlorid 0,005 Gew.-%, Benzododeciniumchlorid]
- Ergebnis der Reisolierung qualitiativ (+/-) nach Anreicherung (H.influenzae; 2 h after inoculation): -
- Ergebnis der Reisolierung qualitiativ (+/-) nach Anreicherung (H.influenzae; 4 h after inoculation): -
- Ergebnis der Reisolierung qualitiativ (+/-) nach Anreicherung (H.influenzae; 6 h after inoculation): -
- Ergebnis der Reisolierung qualitiativ (+/-) nach Anreicherung (H.influenzae; 8 h after inoculation): -
- Ergebnis der Reisolierung qualitiativ (+/-) nach Anreicherung (H.influenzae; 24 h after inoculation): -
- Ergebnis der Reisolierung qualitiativ (+/-) nach Anreicherung (H.influenzae; 32 h after inoculation): -
- Ergebnis der Reisolierung qualitiativ (+/-) nach Anreicherung (H.influenzae; 48 h after inoculation): -
- Ergebnis der Reisolierung qualitiativ (+/-) nach Anreicherung (H.influenzae; 72 h after inoculation): -

Source: patent publication EP1171107B1, “USE OF A PHARMACEUTICAL COMPOSITION IN THE MANUFACTURE OF A MEDICAMENT FOR THE TREATMENT OF PATHOLOGICAL CONDITIONS OF THE EYE CAUSED BY BACTERIA, VIRUSES, FUNGI, YEASTS AND PROTOZOA” (Dr. GERHARD MANN chem.-pharm. Fabrik GmbH, priority 1999, dated 2000)
